{"source": "patent US20210238138A1", "about": "“Method for improving nucleation of crystals from solution” (Université Libre de Bruxelles, priority 2018, published 2021)", "assay_type_in_all_cases": "physicochemical", "key": {"[1]": {"assay": "Transient time and distance of aspirin solution in tubing", "settings": "200 mg/mL in ethanol/water 50/50 vol %, start 60° C., water bath 10° C.; for Transient distance: flow rate 30 mL/min", "description": "Two different capillaries of dimensions 1000 and 1500 μm inner diameter ID were used for a test using the setup of FIG. 1 in which the evolution of temperature inside the tubing was experimentally investigated at different distances.\n(§1) The transition time is defined as the time necessary to reach crystallization conditions in the used setup (i.e. time for a fluid particle flowing in the liquid to get from undersaturated conditions to nucleation conditions). Therefore, this time is at a given concentration dominated by the difference in temperature between the solubility temperature and the metastable zone width or MSZW. At temperatures below this MSZW the solute in solution starts to nucleate spontaneously. […] (both measured). The transition time is then defined as the time needed to overcome this 20° C. difference in temperature.\nAs a consequence, for a 1500 μm inner diameter tubing, the total tubing length necessary to conduct crystallization is a multitude of the corresponding transient distance, making any workable application impossible: about 3.5 m are necessary to overcome the solubility time; 3.5 m to reach transient distance and approximately the 4 times the transient distance is necessary to increase sufficiently the induction time. The transient distance is defined as the distance the liquid is transferred during the transient time at a given flow rate."}, "[2]": {"assay": "Cooling crystallisation of acetylsalicylic acid in ethanol/water in capillary tubing"}, "[3]": {"assay": "Solubility temperature and spontaneous nucleation temperature of aspirin solution", "settings": "200 mg/mL in 50/50 vol % ethanol/water", "description": "as §1"}, "[4]": {"assay": "Cooling crystallisation of acetylsalicylic acid in ethanol/water in capillary tubing", "settings": "200 mg/mL 50 vol % ethanol/water, residence time 5.3 s, initial 65° C., bath 10° C.", "procedure": "Tubing length should also be adapted when no antisolvent is added to the molecule/solvent solution.\nThe crystallization temperature is controlled by a water bath containing about 5 L of water, temperature is monitored at all times by a thermocouple. This water is cooled by a 1 m long cupper serpentine plunged into the bath with cooling liquid flowing from and to a cryothermostat, the water bath itself is agitated with a magnetic bar stirrer. The internal volume of a 7 m long tubing of […] is about 22 mL. As this volume is 220 times smaller than the volume of the present water it is assumed that the water temperature remains within a 0.5° C. or smaller margin of the set temperature value.\nThis reduction in size has to be performed in order to increase the reigning Reynolds number inside the restriction at set flow rates and concentrations.\nFor example, in a series of tests, an identical total residence time inside the tubing of 5.3 s was respected. A solution of 200 mg/mL aspirin in 50 vol % ethanol/water was used; at different flow rates. This means that the total length of the tubing inside the water bath was varied according to the set flow rate in order to retain the 5.3 s residence time."}, "[5]": {"settings": "200 mg/mL 50 vol % ethanol/water, residence time 5.3 s, initial 65° C., bath 10° C., tubing ID 1000 μm, flow rate 20 mL/min, tubing length 2.5 m"}, "[6]": {"settings": "test 40: 200 mg/mL ethanol/water 50/50 vol %, 3 m tubing, Tc 15° C., σ 4.5, 30 mL/min, restriction 0, average of 10 tests"}, "[7]": {"settings": "test 41: 200 mg/mL ethanol/water 50/50 vol %, 3 m tubing, Tc 15° C., σ 4.5, 30 mL/min, restriction 1 of 500 μm ID, average of 10 tests"}, "[8]": {"settings": "test 42: 200 mg/mL ethanol/water 50/50 vol %, 3 m tubing, Tc 15° C., σ 4.5, 30 mL/min, restriction 2 of 500 μm ID, average of 10 tests"}, "[9]": {"settings": "test 43: 200 mg/mL ethanol/water 50/50 vol %, 3 m tubing, Tc 15° C., σ 4.5, 30 mL/min, restriction 1 of 250 μm ID, average of 10 tests"}, "[10]": {"settings": "test 44: 200 mg/mL ethanol/water 50/50 vol %, 3 m tubing, Tc 15° C., σ 4.5, 30 mL/min, restriction 2 of 250 μm ID, average of 10 tests"}}, "data": [{"smiles": "CC(=O)Oc1ccccc1C(=O)O", "note": "[Acetylsalicylic acid, acetylsalicylic acid]", "values": [{"measurement": "Transient time", "setting": "[1]; tubing 1000 μm", "value": "1 000 ms"}, {"measurement": "Transient distance", "setting": "[1]; tubing 1000 μm", "value": 1.3, "unit": "m"}, {"measurement": "Transient time", "setting": "[1]; tubing 1500 μm", "value": "5 700 ms"}, {"measurement": "Transient distance", "setting": "[1]; tubing 1500 μm", "value": 3.5, "unit": "m"}, {"measurement": "Nucleation rate J", "setting": "[2]; 200 mg/mL 50 vol % ethanol/water, residence time 5.3 s, initial 65° C., bath 10° C., tubing ID 750 μm, flow rate 20 mL/min, tubing length 4.2 m", "value": "50 000 mL^−1 · s−^1"}, {"measurement": "Crystal length", "setting": "[2]; 200 mg/mL 50 vol % ethanol/water, residence time 5.3 s, initial 65° C., bath 10° C., tubing ID 750 μm, flow rate 30 mL/min, tubing length 6.2 m", "value": 285, "unit": "μm"}, {"measurement": "Crystal length", "setting": "[2]; [5]", "value": 1279, "unit": "μm"}, {"measurement": "Nucleation rate J", "setting": "[2]; [5]", "value": 1400, "unit": "mL^−1 · s−^1"}, {"measurement": "Nucleation rate J", "setting": "[2]; 200 mg/mL 50 vol % ethanol/water, residence time 5.3 s, initial 65° C., bath 10° C., tubing ID 1000 μm, flow rate 30 mL/min, tubing length 3.6 m", "value": "54 000 mL^−1 · s−^1"}, {"measurement": "Nucleation rate J", "setting": "[2]; 200 mg/mL 50 vol % ethanol/water, residence time 5.3 s, initial 65° C., bath 10° C., tubing ID 1000 μm, flow rate 40 mL/min, tubing length 4.7 m", "value": "112 000 mL^−1 · s−^1"}, {"measurement": "Crystal length", "setting": "[2]; 200 mg/mL 50 vol % ethanol/water, residence time 5.3 s, initial 65° C., bath 10° C., tubing ID 1500 μm, flow rate 20 mL/min, tubing length 1.2 m", "value": "No crystallization observed"}, {"measurement": "Crystal length", "setting": "[2]; 200 mg/mL 50 vol % ethanol/water, residence time 5.3 s, initial 65° C., bath 10° C., tubing ID 1500 μm, flow rate 30 mL/min, tubing length 1.7 m", "value": "No crystallization observed"}, {"measurement": "Crystal length", "setting": "[2]; 200 mg/mL 50 vol % ethanol/water, residence time 5.3 s, initial 65° C., bath 10° C., tubing ID 1500 μm, flow rate 40 mL/min, tubing length 2.2 m", "value": "No crystallization observed"}, {"measurement": "Crystal length", "setting": "[2]; test 34: 300 mg/mL ethanol-water, Tc 15° C., σ 27, Q 30 mL/min, tubing length 7 m, diameter 500 μm, 4 restrictions 1 mm long, 500 μm", "value": "Tube blocked"}, {"measurement": "Crystal length", "setting": "[2]; test 35: 300 mg/mL ethanol-water, Tc 10° C., σ 27, Q 30 mL/min, tubing length 6 m, diameter 750 μm, 4 restrictions 1 mm long, 500 μm", "value": "Tube blocked"}, {"measurement": "Crystal length", "setting": "[2]; test 36: 300 mg/mL ethanol-water, Tc 10° C., σ 27, Q 30 mL/min, tubing length 5 m, diameter 500 μm, 4 restrictions 1 mm long, 500 μm", "value": "Tube blocked"}, {"measurement": "Crystal length", "setting": "[2]; test 37: 300 mg/mL ethanol-water, Tc 10° C., σ 27, Q 30 mL/min, tubing length 3 m, diameter 500 μm, 4 restrictions 1 mm long, 500 μm", "value": "800 ± 68", "unit": "μm"}, {"measurement": "Crystal length", "setting": "[2]; test 38: 300 mg/mL ethanol-water, Tc 10° C., σ 27, Q 30 mL/min, tubing length 3 m, diameter 500 μm, 4 restrictions 1 mm long, 500 μm", "value": "820 ± 80", "unit": "μm"}, {"measurement": "Crystal length", "setting": "[2]; test 39: 300 mg/mL ethanol-water, Tc 10° C., σ 27, Q 30 mL/min, tubing length 3 m, diameter 500 μm, 4 restrictions 1 mm long, 500 μm", "value": "795 ± 73", "unit": "μm"}, {"measurement": "Crystal length", "setting": "[2]; [6]", "value": "1319 ± 167", "unit": "μm"}, {"measurement": "Nucleation rate", "setting": "[2]; [6]", "value": 2300, "unit": "mL⁻¹ s⁻¹"}, {"measurement": "Sphere Equivalent Diameter", "setting": "[2]; [6]", "value": "449 ± 74", "unit": "μm"}, {"measurement": "Crystal length", "setting": "[2]; [7]", "value": "1398 ± 100", "unit": "μm"}, {"measurement": "Nucleation rate", "setting": "[2]; [7]", "value": 1900, "unit": "mL⁻¹ s⁻¹"}, {"measurement": "Sphere Equivalent Diameter", "setting": "[2]; [7]", "value": "490 ± 85", "unit": "μm"}, {"measurement": "Crystal length", "setting": "[2]; [8]", "value": "1049 ± 179", "unit": "μm"}, {"measurement": "Nucleation rate", "setting": "[2]; [8]", "value": 3700, "unit": "mL⁻¹ s⁻¹"}, {"measurement": "Sphere Equivalent Diameter", "setting": "[2]; [8]", "value": "348 ± 104", "unit": "μm"}, {"measurement": "Crystal length", "setting": "[2]; [9]", "value": "962 ± 82", "unit": "μm"}, {"measurement": "Nucleation rate", "setting": "[2]; [9]", "value": 5300, "unit": "mL⁻¹ s⁻¹"}, {"measurement": "Sphere Equivalent Diameter", "setting": "[2]; [9]", "value": "328 ± 31", "unit": "μm"}, {"measurement": "Crystal length", "setting": "[2]; [10]", "value": "393 ± 35", "unit": "μm"}, {"measurement": "Nucleation rate", "setting": "[2]; [10]", "value": "130 000 mL^−1 · s^−1"}, {"measurement": "Sphere Equivalent Diameter", "setting": "[2]; [10]", "value": "117 ± 20", "unit": "μm"}, {"measurement": "Crystal depth as fraction of the width", "setting": "[2]; tests 43 and 44 (250 μm inner diameter restrictions), 200 mg/mL ethanol/water 50/50", "value": "about ⅕"}, {"measurement": "Solubility temperature", "setting": "[3]", "value": 40, "unit": "°C"}, {"measurement": "Temperature at which spontaneous nucleation starts", "setting": "[3]", "value": 20, "unit": "°C"}, {"measurement": "Crystal length", "setting": "[4]; tubing ID 750 μm, flow rate 20 mL/min, tubing length 4.2 m", "value": 377, "unit": "μm"}, {"measurement": "Nucleation rate J", "setting": "[4]; tubing ID 750 μm, flow rate 30 mL/min, tubing length 6.2 m", "value": "170 000 mL^−1 · s−^1"}, {"measurement": "Crystal length", "setting": "[4]; tubing ID 1000 μm, flow rate 30 mL/min, tubing length 3.6 m", "value": 495, "unit": "μm"}, {"measurement": "Crystal length", "setting": "[4]; tubing ID 1000 μm, flow rate 40 mL/min, tubing length 4.7 m", "value": 416, "unit": "μm"}]}]}
